Results reported in article PMC5484788, “Development of a common carp (Cyprinus carpio) pregnane X receptor (cPXR) transactivation reporter assay and its activation by azole fungicides and pharmaceutical chemicals” (Toxicology in Vitro, 2017).
Where two headings read alike, the source gives them in different places.

How the values were obtained:
hPXR = target: T1, hPXR (Homo sapiens, UniProt O75469); test: human PXR (hPXR) luciferase transactivation reporter assay, pGL4.24-6xPXRE reporter, COS-7 cells; settings: for maximal effect (Emax) hPXR, times that of the control: COS-7 cells, 44 h, relative to DMSO control
T1 sequence (O75469 1-473 isoform O75469-7): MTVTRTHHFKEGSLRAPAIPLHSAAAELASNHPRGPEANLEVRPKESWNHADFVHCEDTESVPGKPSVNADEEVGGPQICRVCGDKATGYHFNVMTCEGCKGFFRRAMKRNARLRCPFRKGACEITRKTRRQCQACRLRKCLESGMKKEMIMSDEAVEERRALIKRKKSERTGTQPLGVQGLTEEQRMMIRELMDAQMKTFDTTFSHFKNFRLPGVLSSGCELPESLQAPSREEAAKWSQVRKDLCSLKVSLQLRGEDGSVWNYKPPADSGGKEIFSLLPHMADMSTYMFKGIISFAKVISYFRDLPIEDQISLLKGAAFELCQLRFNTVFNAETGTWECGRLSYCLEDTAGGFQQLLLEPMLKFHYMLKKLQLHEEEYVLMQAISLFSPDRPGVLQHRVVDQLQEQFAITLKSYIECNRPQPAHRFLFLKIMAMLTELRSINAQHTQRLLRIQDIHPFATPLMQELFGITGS
Description: Human PXR (hPXR) clone cDNA was purchased from Promega. […] The following PCR protocol was employed: 21 cycles of denaturation at 98 °C for 10 s, annealing at 60 °C for 5 s and elongation at 72 °C for 15 s. The purified product was then ligated into the eukaryotic expression vector pcDNA3.1(+) (Invitrogen) using the correspondent restriction enzymes and T4 DNA ligase (Promega).
(§1) A reporter vector was constructed based on several variations of the PXR response element (PXRE; Fig. 1). The PXRE occurs either as a direct or everted repeat of the consensus motif […], spaced by between 3 and 8 nucleotides. The PXRE sequence created here was based on that reported in [Xie et al. (2000)]. […] To maximise reporter efficiency, a further PXRE motif was added either side of the previously generated long chain oligo using PCR. […] The following PCR conditions were employed: 21 cycles of denaturation at 98 °C for 10 s, annealing at 60 °C for 5 s and elongation at 72 °C for 30 s. After purification, and using the appropriate restriction enzymes KpnI and HindIII, the obtained fragment was subsequently ligated into the pGL4.24[luc2P/minP] vector (Promega) which contains the firefly (Photinus pyralis) luciferase (luc2P) gene, to create the pGL4.24-6xPXRE reporter construct.
(§2) The cells were maintained at subconfluent densities and sub-cultured when reaching 80% confluency.
(§3) For transfection assays, cells were seeded in 24-well plates at 5 × 10^4 cells well^− 1 in phenol-red free DMEM (supplemented with 10% charcoal/dextran-treated foetal bovine serum (Hyclone). After 24 h, the cells were transiently transfected with 200 ng of either pcDNA3.1(+)/cPXR or pcDNA3.1(+)/hPXR, 400 ng of reporter construct (either MMTV/luc2/pGL4 (Promega) or pGL4.24-6xPXRE) and 100 ng of pRL-TK (driving the Renilla reniformis luciferase gene as an internal control to normalise for variations in transfection efficiency) using Fugene HD transfection reagent (Promega) in serum-free medium according to the manufacturer's protocol. Four hours after transfection, cells were treated with PXR agonists (see below). Forty-eight hours after transfection, cells were lysed and the luciferase activities of the cells were measured by a chemiluminescence assay with Dual-Luciferase Reporter Assay System (Promega) according to the manufacturer's instructions. Luminescence was measured using an Infinite 200 Pro plate reader (Tecan, Grödig, Austria). Promoter activity was calculated as firefly (Photinus pyralis)-luciferase activity/sea pansy (R. reniformis)-luciferase activity. All transfections were done at least three times, employing triplicate sample points in each experiment.
(§4) In addition to the pGL4.24-6xPXRE reporter construct, a commercially available MMTV/luc2/pGL4 reporter vector (Promega) was tested as a reporter plasmid (i.e. for PXRE function), as it is known to contain various nuclear receptor response elements in the promoter region.

cPXR = cPXR (Cyprinus carpio, UniProt A0A1P8P0E9); test: carp PXR (cPXR) luciferase transactivation reporter assay, pGL4.24-6xPXRE reporter, COS-7 cells; settings: for transactivation of cPXR (result in words): concentration-response 10^-11 to 10^-5 M, pGL4.24-6xPXRE reporter
Sequence of cPXR (A0A1P8P0E9 entry or part of it): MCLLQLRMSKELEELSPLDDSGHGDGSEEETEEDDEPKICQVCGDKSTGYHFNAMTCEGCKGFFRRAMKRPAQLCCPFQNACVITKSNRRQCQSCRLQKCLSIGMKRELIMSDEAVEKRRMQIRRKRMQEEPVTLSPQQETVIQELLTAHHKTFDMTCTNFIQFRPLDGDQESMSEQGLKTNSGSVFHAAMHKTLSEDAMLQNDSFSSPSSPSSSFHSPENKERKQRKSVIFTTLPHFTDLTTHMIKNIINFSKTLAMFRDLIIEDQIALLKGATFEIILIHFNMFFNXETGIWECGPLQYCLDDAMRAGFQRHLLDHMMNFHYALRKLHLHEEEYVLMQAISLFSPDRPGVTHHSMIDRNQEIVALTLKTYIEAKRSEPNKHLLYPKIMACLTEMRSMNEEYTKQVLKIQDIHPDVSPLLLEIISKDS
Description: For this, cDNA was reverse transcribed from 1 μg of carp liver total RNA as described above and amplified using the Advantage 2 DNA polymerase mix (Clontech) according to the manufacturer's instructions. The resulting PCR product was purified and sequenced to confirm the full sequence length and sub-cloned into pGEM-T Easy vector (Promega) following the manufacturer's recommendations. Plasmid DNA was isolated using the Wizard Plus SV minipreps DNA Purification system (Promega) according to manufacturer's instructions. Using the BamHI and EcoRV sites, the cPXR sequences was subsequently ligated into the eukaryotic expression vector pcDNA3.1(+) (Invitrogen) using the correspondent restriction enzymes (New England Biolabs, Hitchin, UK) and T4 DNA ligase (Promega).
as §1, §2, §3, §4

zebrafish PXR = settings: ref Bainy et al., 2013, cited from earlier work
FHM PXR = tested on: FHM PXR; design: method as in Milnes et al., 2008; settings: exposure to 50 μM; ref Milnes et al., 2008; cited from earlier work
PXR from the pufferfish = settings: 50 μM; ref Milnes et al., 2008; cited from earlier work
COS-7 cells = test: toxicity to COS-7 cells in the transactivation assays (inhibited cell growth); type: cell-based; settings: 100 μM, in both cPXR and hPXR assays
[1] = concentration-response 10^-11 to 10^-5 M, pGL4.24-6xPXRE reporter

Structure (SMILES) | transactivation of hPXR (result in words) (hPXR; [1]) | transactivation of cPXR (result in words) (cPXR) | other results
CC(C)NCC(O)COc1ccc(CC(N)=O)cc1 (stereo not shown) [ATN, atenolol] | did not induce transactivation | did not induce transactivation | –
CC(C)(Oc1ccc(Cl)cc1)C(=O)O [CFA, clofibric acid] | did not induce transactivation | did not induce transactivation | –
Clc1ccccc1C(c1ccccc1)(c1ccccc1)n1ccnc1 [CTZ, clotrimazole] | – | – | EC50 (hPXR): 0.88 µM; maximal effect (Emax) hPXR, times that of the control (hPXR; pGL4.24-6xPXRE reporter): 4.8 x-fold; zebrafish PXR up-regulation above controls (zebrafish PXR; exposure concentrations between 0.5 and 50 μM, Milnes et al., 2008, Moore et al., 2000): 8 fold; lower activation of zebrafish full-length PXR compared with zebrafish PXR-LBD construct (zebrafish PXR): 90%; FHM PXR up-regulation (FHM PXR): up to 35 times
O=C(O)Cc1ccccc1Nc1c(Cl)cccc1Cl [DIC, diclofenac] | – | did not induce transactivation | transactivation of hPXR (result in words) (hPXR): did not induce transactivation
C#C[C@]1(O)CC[C@H]2[C@@H]3CCc4cc(O)ccc4[C@H]3CC[C@@]21C [EE2, 17α-ethinyloestradiol] | – | activated | concentration at which transactivation of hPXR was induced (hPXR): 10 µM; transactivation of hPXR (result in words) (hPXR): activate hPXR; concentration at which transactivation of cPXR was induced (cPXR; only concentration giving induction, range 10^-11 to 10^-5 M): 10 µM
Cc1ccc(C)c(OCCCC(C)(C)C(=O)O)c1 [GEM, gemfibrozil] | did not induce transactivation | did not induce transactivation | –
CC(C)Cc1ccc(C(C)C(=O)O)cc1 (stereo not shown) [IBU, ibuprofen] | – | did not induce transactivation | –
CC(=O)N1CCN(c2ccc(OCC3COC(Cn4ccnc4)(c4ccc(Cl)cc4Cl)O3)cc2)CC1 (stereo not shown) [KTZ, ketoconazole] | had no effect | had no effect | –
Clc1ccc(COC(Cn2ccnc2)c2ccc(Cl)cc2Cl)c(Cl)c1 (stereo not shown) [MCZ, miconazole] | induced transactivational activity | – | –
CCCC1COC(Cn2cncn2)(c2ccc(Cl)cc2Cl)O1 (stereo not shown) [PCZ, propiconazole] | induced transactivational activity | induced transactivational activity | EC50 (cPXR): 0.213 µM
CC(C)NCC(O)COc1cccc2ccccc12 (stereo not shown) [Propranolol, propranolol] | – | – | EC50 (hPXR): 0.044 µM
CO[C@H]1/C=C/O[C@@]2(C)Oc3c(C)c(O)c4c(O)c(c(/C=N/N5CCN(C)CC5)c(O)c4c3C2=O)NC(=O)/C(C)=C\C=C\[C@H](C)[C@H](O)[C@@H](C)[C@@H](O)[C@@H](C)[C@H](OC(C)=O)[C@@H]1C [RIF, rifampicin] | – | not activated | activation of hPXR compared with control, single concentration (hPXR; 1 μM (10^-6 M), pGL4.24-6xPXRE reporter, reporter plasmid comparison): significant activation; maximal effect (Emax) hPXR, times that of the control (hPXR; pGL4.24-6xPXRE reporter): 6.4 x-fold; activation of pufferfish PXR (PXR from the pufferfish): activate
CC/C(=C(\c1ccccc1)c1ccc(OCCN(C)C)cc1)c1ccccc1 [TAM, tamoxifen] | – | had no effect | toxicity to COS-7 cells (inhibited cell growth) (COS-7 cells): toxic
